Data: PubChem BioAssay AID839 (SRMLSC, 2007)
Calls of active or inactive are those of the source. The rule behind the calls is not given here.

Assay: yeast growth inhibition, transport mutant vs wild type, confirmation, post-Golgi transport mutant, OD600 growth rate (AID 839)
Conditions: yeast transport mutant vs control strains, stronger effect = higher value
[1] = measured here: mutant growth inhibition 20 uM, at 20 µM
[2] = measured here: wild type growth inhibition 20 uM, at 20 µM
[3] = measured here: wild type growth inhibition 40 uM, at 40 µM

Row | Compound | growth inhibition (at 40 µM) | growth inhibition [1] [%] | growth inhibition [2] [%] | growth inhibition [3] [%]
1 | Cc1ccc(Cl)c(OCCCCN(C)Cc2ccccc2)c1 | 72.6% | 31.6 | 11.1 | 22.1
2 | Clc1ccc(Cn2nnc(-c3ccc(CN4CCOCC4)cc3)n2)cc1 | 26.7% | 11.9 | 8.16 | 12.6
3 | O=C(OCn1ncc(Cl)c(Cl)c1=O)c1ccc(C(F)(F)F)cc1 | 46.7% | 50.9 | 13.4 | 16.2
4 | Cc1ccc(OCC(O)CN2CCN(Cc3ccc4c(c3)OCO4)CC2)c(C)c1 (stereo unspecified) | 33% | 12.9 | 2.63 | 10
5 | CC(C)c1ccc(C(=O)CSc2n[nH]c(-c3ccncc3)n2)cc1 | 12.5% | 7.43 | 4.42 | 13.6
6 | CCCCCCOc1ccc(CN2CCN(CCO)CC2)cc1 | 33.4% | 20.7 | 7.37 | 13.6
7 | CC1CC(C)CN(CCOc2ccc(Cl)cc2Cl)C1 (stereo unspecified) | 46.7% | 30.7 | 8.64 | 14.7
8 | Cc1cc(C(C)(C)C)ccc1OCCN1CCCC1 | 18.2% | 18.4 | 7.77 | 7.54
9 | CC1CN(CCCCOc2ccc(C(C)C)cc2)CC(C)O1 (stereo unspecified) | 26.4% | 12.1 | 2.42 | 7.83
10 | O=C(COc1ccc(Br)cc1F)NC1CCN(Cc2ccccc2)CC1 | 27.4% | 12.6 | 2.81 | 5.41
11 | C=C(C)C1CC=C(CN2CCC(C(=O)OCC)CC2)CC1 (stereo unspecified) | 1.06% (inactive) | -2.77 | 0.148 | 1.89
12 | N=c1c2c(-c3ccccc3)c(-c3ccccc3)n(Cc3ccco3)c2ncn1Cc1ccccc1 | 38.2% | 8.14 | 9.7 | 12.7
13 | CCOC(=O)COc1ccccc1C1Nc2ccccc2C(=O)N1c1cccc(Cl)c1 (stereo unspecified) | 21.1% | 19.4 | 13 | 24.8
14 | Cc1nc(NC(=O)c2ccccc2)sc1-c1csc(NCc2ccccc2)n1 | 32.7% | 20 | 6.67 | 15
15 | C=C(C)C1CC=C(CN2CC(C)OC(C)C2)CC1 (stereo unspecified) | 4.31% | 11.8 | 13.7 | 1.76
16 | CCCCCOc1ccc(Cl)cc1CN1CCOCC1 | 17.8% | 26 | 7.83 | -7.6
17 | CC1CN(CC(O)COc2ccc(C(C)C)cc2)CC(C)O1 (stereo unspecified) | 8.85% | 5.56 | -2.84 | -1.47
18 | Cc1ccc(C(=O)c2c(NC(=O)c3ccncc3)sc3c2CCCC3)cc1 | 14.7% | 19.8 | 13.5 | 18.9
19 | CC1CCCN(CCOCCOc2ccc(Cl)cc2Br)C1 (stereo unspecified) | 53.2% | 23.4 | 8.13 | 12.7
20 | Clc1cc(Br)ccc1OCCOCCN1CCOCC1 | 8.89% | 8.52 | 2.58 | 3.79
21 | O=C(COc1ccc(Cl)cc1Cl)NCCCN1CCOCC1 | 6.19% | 7.28 | 3.8 | 6.18
22 | O=S(=O)(c1ccc(Cl)cc1)N1CCN(C2CCN(Cc3ccccc3)CC2)CC1 | 10.4% | 7.74 | 0.396 | 3.66
23 | Cc1ccc(CN2CCN(/N=C/c3cc(Br)ccc3O)CC2)cc1 | 21.1% | 18.9 | 7.91 | 7.23
24 | O=C(C1COc2ccccc2O1)N1CCN(Cc2ccc3c(c2)OCO3)CC1 (stereo unspecified) | 7.29% | 6.43 | -1.59 | 5.57
